Among the data in paper PMC5172606 (Archives of biochemistry and biophysics, 2016) are IC50 values, retold here.

This test concerns the target T1, human soluble epoxide hydrolase (sEH) (Homo sapiens, UniProt P34913).
T1 sequence (P34913 1-555): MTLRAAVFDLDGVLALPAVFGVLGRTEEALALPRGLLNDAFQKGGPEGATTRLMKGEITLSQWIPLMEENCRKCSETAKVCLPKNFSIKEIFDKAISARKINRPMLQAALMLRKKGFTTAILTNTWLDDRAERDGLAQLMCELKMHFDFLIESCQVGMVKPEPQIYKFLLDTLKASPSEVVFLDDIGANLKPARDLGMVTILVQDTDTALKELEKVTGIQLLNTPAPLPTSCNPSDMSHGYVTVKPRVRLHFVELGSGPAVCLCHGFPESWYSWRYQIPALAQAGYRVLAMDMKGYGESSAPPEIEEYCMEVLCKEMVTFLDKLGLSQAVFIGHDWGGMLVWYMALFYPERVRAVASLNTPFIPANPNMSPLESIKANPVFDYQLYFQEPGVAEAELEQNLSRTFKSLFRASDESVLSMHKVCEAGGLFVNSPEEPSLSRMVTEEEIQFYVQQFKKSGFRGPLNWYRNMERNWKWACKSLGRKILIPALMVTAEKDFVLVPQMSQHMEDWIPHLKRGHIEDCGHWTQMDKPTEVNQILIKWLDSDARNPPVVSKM
Description: radiometric assay with [3H]-tDPPO substrate. The test is classed as biochemical.

For UC2389, the IC50 was found to be 20 ± 0.5 nM.
